From patent US20250066379A1, “ANTIMALARIAL AGENTS” (Merck Sharp & Dohme LLC, priority 2021, published 2025)

The compounds below were run on parasite (assay: Parasite LDH growth assay (Parasite Assay)). Conditions: Plasmodium falciparum, 72 h, ring stage parasites, 72 hours growth at 37° C., LDH readout of parasite growth.
Type: cell-based, Plasmodium falciparum
Procedure: Assessing Antiparasite Potency in a Parasite LDH Growth Assay (Parasite Assay) The parasite stock was maintained at 4% haematocrit in RPMI-Hepes media 30 buffered with sodium bicarbonate and supplemented with 5% heat inactivated human serum and 0.5% albumax. Approximately 42 hours prior to the potency assay being set up, parasites were synchronized with 5% sorbitol to select for ring stage parasites. On the day of assay set up, a blood smear of the parasite culture was Giemsa stained and counted. The parasitemia was 35 adjusted to 0.7% rings and the haematocrit was diluted to 2% in RPMI-Hepes media buffered with sodium bicarbonate and supplemented with 5% heat inactivated human serum and 0.5% albumax. 30 ul of diluted parasites are then added into 10 μl of media+compound in pre-prepared Greiner TC assay plates. Parasite assay plates were placed in gassed humidified boxes in single layer and allowed to incubate at 37° C. for 72 hours. After 72 hours growth, assay plates are sealed with parafilm and frozen flat, in single file at −80° C. overnight. On the following day, assay plates were allowed to thaw at room temperature for 4 hours to which an LDH assay was performed to measure parasite growth.

Which EC50 does the source give for CC[C@]12CCC/C=C\c3ccc4c(c3)[C@@H](NC(=O)c3ccc5c(c3)[C@@H](CCO5)N(C(=N)N1)C(=O)C2)[C@H](O)C4 [Example 6, (1R,5R,9Z,16R, 17R)-5-ethyl-16-hydroxy-3-imino-24-oxa-2,4,18-triazahexacyclo[18. 6.2.22,5.211,14.013, 17.023,27] dotriaconta-9,11,13,20,22,27, 29-heptaene-19,32-dione] here?
The EC50 was 2.8 nM.

CC[C@]12CCC/C=C/c3ccc4c(c3)[C@H](CC(C)(C)O4)NC(=O)c3ccc4c(c3)[C@@H](CCO4)N(C(=N)N1)C(=O)C2 [Example 7, (1R,5R,9E,18S)-5-ethyl-3-imino-16,16-dimethyl-15,25-dioxa-2,4,19-triazahexacyclo[19. 6.2.22,5.211,14.013, 18.024,28] tritriaconta-9,11,13,21,23,28, 30-heptaene-20,33-dione] was tested. Which EC50 did it give?
The EC50 was 0.9 nM.

How did the EC50 turn out when CC[C@]12CCCCCc3ccc4c(c3)[C@H](CC(C)(C)O4)NC(=O)c3ccc4c(c3)[C@@H](CCO4)N(C(=N)N1)C(=O)C2 [Example 8, (1R,5R,18S)-5-ethyl-3-imino-16,16-dimethyl-15,25-dioxa-2,4,19-triazahexacyclo[19. 6.2.22,5.211,14.013, 18.024,28] tritriaconta-11,13,21,23,28,30-hexaene-20,33-dione] was run?
Its EC50 is 1.1 nM.

How did the EC50 turn out when CC[C@@]12CCCCCc3ccc4c(c3)[C@H](CC(C)(C)O4)NC(=O)c3ccc4c(c3)[C@@H](CCO4)N(C(=N)N1)C(=O)C2 [Example 9, (1R,5S,18S)-5-ethyl-3-imino-16,16-dimethyl-15,25-dioxa-2,4,19-triazahexacyclo[19. 6.2.22,5.211,14.013, 18.024,28] tritriaconta-11,13,21,23,28,30-hexaene-20,33-dione] was run?
The EC50 was 76.5 nM.

Which EC50 does the source give for CC[C@]12CCC/C=C\Cc3ccc4c(c3)[C@H](CC(C)(C)O4)NC(=O)c3ccc4c(c3)[C@@H](CCO4)N(C(=N)N1)C(=O)C2 [Example 10, (1R,5R,9Z,19S)-5-ethyl-3-imino-17,17-dimethyl-16,26-dioxa-2,4,20-triazahexacyclo[20. 6.2.22,5.212,15.014, 19.025,29] tetratriaconta-9,12,14,22(30),23, 25(29),31-heptaene-21,34-dione] here?
The EC50 was 2.5 nM.

CC[C@]12CCC/C=C/Cc3ccc4c(c3)OC(C)(C)C[C@@H]4NC(=O)c3ccc4c(c3)[C@@H](CCO4)N(C(=N)N1)C(=O)C2 [Example 11, (1R,5R,9E,20S)-5-ethyl-3-imino-18,18-dimethyl-17,27-dioxa-2,4,21-triazahexacyclo[21. 6.2.22,5.112,16.015, 20.026,30] tetratriaconta-9,12(32),13,15,23, 25,30-heptaene-22,34-dione] was tested. Which EC50 did it give?
The EC50 was 4.6 nM.

For CC[C@]12CCCCCCc3ccc4c(c3)[C@H](CC(C)(C)O4)NC(=O)c3ccc4c(c3)[C@@H](CCO4)N(C(=N)N1)C(=O)C2 [Example 12, (1R,5R,19S)-5-ethyl-3-imino-17,17-dimethyl-16,26-dioxa-2,4,20-triazahexacyclo[20. 6.2.22,5.212,15.014, 19.025,29] tetratriaconta-12,14,22(30),23, 25(29),31-hexaene-21,34-dione], which EC50 is on record?
Its EC50 is 1 nM.

With CC[C@@]12CCCCCCc3ccc4c(c3)OC(C)(C)C[C@@H]4NC(=O)c3ccc4c(c3)[C@@H](CCO4)N(C(=N)N1)C(=O)C2 [Example 13, (1R,5S,20S)-5-ethyl-3-imino-18,18-dimethyl-17,27-dioxa-2,4,21-triazahexacyclo[21. 6.2.22,5.112,16.015, 20.026,30] tetratriaconta-12(32),13,15,23,25, 30-hexaene-22,34-dione] as the compound, how does the EC50 read?
Its EC50 is 22 nM.

With CC[C@]12CCCCCCc3ccc4c(c3)OC(C)(C)C[C@@H]4NC(=O)c3ccc4c(c3)[C@@H](CCO4)N(C(=N)N1)C(=O)C2 [Example 14, (1R,5R,20S)-5-ethyl-3-imino-18,18-dimethyl-17,27-dioxa-2,4,21-triazahexacyclo[21. 6.2.22,5.112,16.015, 20.026,30] tetratriaconta-12(32),13,15,23, 25,30-hexaene-22,34-dione] as the compound, how does the EC50 read?
The EC50 was 34 nM.

CCC12CCCCCc3ccc4c(c3)[C@H](CC(C)(C)O4)NC(=O)c3ccc4c(c3)[C@@H]([C@H](COC)CO4)N(C(=N)N1)C(=O)C2 (stereo partly drawn) [Example 16A, (1R,18S,27R)-5-ethyl-3-imino-27-(methoxymethyl)-16,16-dimethyl-15,25-dioxa-2,4,19-triazahexacyclo[19. 6.2.22,5.211,14.013, 18.024,28] tritriaconta-11,13,21,23,28,30-hexaene-20,33-dione] was tested. Which EC50 did it give?
Its EC50 is 61.5 nM.
